The values that follow come from EP0002426B1, “Antiperspirant” (priority 1977, dated 1979).

Several values for one entry are separate records, joined by “and”; a condition that tells them apart may be missing. Identical values can stand only once. Like-named read-outs stand apart in the source and are kept apart here.

One assay deals with dermal analgesia. The assay is described as follows: Pin-prick test of dermal analgesia after epidermal application of local anesthetic emulsions on the forearm. Format: in vivo, volunteers. As to conditions: for Pin-prick test, M1–10: mean of patients 1-10 (out of 10 pin-pricks); for Pin-prick test, M1–12: mean of patients 1-12; for dermal analgesia, effectiveness versus placebo emulsion: under occlusion as well as under a non-occlusive bandage. The procedure: (§1) The anti perspiration effect of the present invention was determined in an experimental investigation of dermal analgesia and influence upon adrenaline-induced local sweating by epidermal application of different local anesthetic formulations.
(§2) 12 healthy medical students took part in the study.
(§3) Pre-formed pads, consisting of cellulose fibres, 2 times 2 centimetres, were soaked by a standardized procedure in either an emulsion containing 5% lidocaine base + 5% prilocaine base, an emulsifying agent and water, 10% lidocaine base in the same vehicle, 10% prilocaine base in the same vehicle, or a placebo emulsion containing the emulsifying agent and water only. On one forearm of the volunteer the four different emulsions were applied under occlusive dressings consisting of an impervious tape, while on the other arm the four emulsions were applied under a non-occlusive dressing, using surgical tape (3M). A certain distance between the application areas was chosen in order to avoid any risk of interference between them.
(§4) On the arms of the volunteers 11 and 12 the emulsions were applied directly to the skin, with no cellulose pads, but with occlusive and non-occlusive dressings applied as in the other volunteers.
(§5) The application time for the pads was 60 minutes.
(§6) Immediately after removal of the pads, the square areas under the two types of dressing were marked at the edges. A line was also marked within each applied area dividing them into two identical triangles. One of these surfaces were then used by pin-prick experiments, the other for studying the sweat response.
The pin-pricking procedure was carried out with disposable dental needles. In each of the test areas 10 pin-pricks were made. 10/10 represents full analgesia, 0/10 no analgesia.

Assay [1] deals with adrenaline-induced local sweating. Nature of the assay: OPT-test of sweat response after intradermal adrenaline, epidermal application of local anesthetic emulsions on the forearm. Format: in vivo, volunteers. Particulars: for sweat response, induced by intracutaneous administration of adrenaline: 12 volunteers, epidermal application; for number of black-coloured sweat pores (OPT-test), M1-10: mean of patients 1-10; for number of black-coloured sweat pores (OPT-test), M1-12: mean of patients 1-12. The procedure: as §1, §2, §3, §4, §5, §6
(§7) Just under the apex of each test area triangle an intradermal wheal 0.1 ml adrenaline 1:10 000 was injected. Pain on injection was noted. The test area was then swabbed with OPT (5% orthophthaldialdehyde in xylol). After drying the OPT-applied area a plastic ring with adhesive on the back side was placed over the visible vasoconstricted area caused by the adrenaline effect, within the test triangle previously covered by the test compositions. The number of black-coloured sweat pores within the standardized diameter hole in the plastic rings was counted under a direct vision microscope.

The nature of assay [2]: Pain on intradermal injection of adrenaline solution in the test areas. It counts as in vivo. Particulars: 0.1 ml adrenaline 1:10 000 in the test area; all volunteers. The method, then: as §7
All volunteers reported pain at the intradermal injection of adrenaline solution at the placebo, the lidocaine and the prilocaine areas but not at the lidocaine-prilocaine areas.

The conditions of assay [3]: cited from earlier work.
[4] abbreviates: Non-Occlusion, individual Patient No 1-10, pads, 60 minutes, 10/10 full analgesia, 0/10 no analgesia.
Setting [5] is: Non-Occlusion, individual Patient No 11, 12, emulsions applied directly to the skin, no cellulose pads.
[6] abbreviates: Occlusion, individual Patient No 1-10, pads, 60 minutes, 10 pin-pricks, 10/10 full analgesia, 0/10 no analgesia.
[7] abbreviates: Occlusion, individual Patient No 11, 12, emulsions applied directly to the skin, no cellulose pads.
The mark [8] stands for this setting: Non-Occlusion, individual Patient No 1-10, soaked cellulose pads, 60 minutes.
The mark [9] stands for this setting: Occlusion, individual Patient No 1-10, soaked cellulose pads, 60 minutes, L—P 5%+5%, L 10%, P 10% emulsion.
Where [10] appears, read: total concentration of 10%, aqueous emulsion.

In the case of `CCN(CC)CC(=O)Nc1c(C)cccc1C` [L, Diethylaminoacet-2',6'-xylidide], the Pin-prick test in the assay on dermal analgesia (setting [4]) is 0/10 (9×) and 1/10; in the assay on dermal analgesia (setting [5]), 0/10; with dermal analgesia (setting [6]), 0/10 (5×) and 2/10 (3×) and 5/10 and 3/10; with dermal analgesia (setting [7]), 8/10 and 6/10. Moreover, the “Pin-prick test, M1–10” value in the assay with dermal analgesia (Non-Occlusion) was 0.10; in the assay on dermal analgesia (Occlusion) it was 1.40. Further, the “Pin-prick test, M1–12” value amounted to 0.08 with dermal analgesia (Non-Occlusion) and 2.33 in the assay with dermal analgesia (Occlusion). The “dermal analgesia, effectiveness versus placebo emulsion” value in the assay on dermal analgesia was “insignificantly more effective than the placebo emulsion”. In addition, in assay [1], the “sweat response, induced by intracutaneous administration of adrenaline” value is “partly blocked”. For the same compound, the “number of black-coloured sweat pores (OPT-test)” value in assay [1] (setting [8]) was 42 and 24 (4×) and 29 and 27 and 25 and 19 and 32; in assay [1] (setting [5]), 22 and 33; in assay [1] (setting [9]), 22 (2×) and 25 and 20 (2×) and 24 (2×) and 16 (2×) and 28; in assay [1] (setting [7]), 12 and 26. The results for the “number of black-coloured sweat pores (OPT-test), M1-10” value in assay [1] (Non-Occlusion) and in assay [1] (Occlusion) were 27.0 and 21.7, respectively. Further, the “number of black-coloured sweat pores (OPT-test), M1-12” value in assay [1] (Non-Occlusion) stood at 27.08; in assay [1] (Occlusion), 21.25. Moreover, the “sweat response, effectiveness versus placebo” value in assay [1] (under non-occlusive bandage) is recorded as “more effective than placebo”; in assay [1] (under occlusive bandage), “significantly more effective than placebo”. Moreover, the “pain at the intradermal injection of adrenaline solution” value in assay [2] is “reported pain”.
`CCCNC(C)C(=O)Nc1ccccc1C` (stereo not shown) [P, 2-propylamino-N-(2-tolyl)propionamide]: the Pin-prick test is 1/10 and 0/10 (8×) and 6/10 in the assay on dermal analgesia (setting [4]); 2/10 and 0/10 in the assay with dermal analgesia (setting [5]); 2/10 and 0/10 (6×) and 10/10 and 1/10 in the assay on dermal analgesia (setting [6]); 7/10 and 9/10 in the assay with dermal analgesia (setting [7]). In addition, the “Pin-prick test, M1–10” value in the assay on dermal analgesia (Non-Occlusion) worked out at 0.70; in the assay with dermal analgesia (Occlusion), 1.44. Moreover, the “Pin-prick test, M1–12” value with dermal analgesia (Non-Occlusion) is recorded as 0.75; with dermal analgesia (Occlusion), 2.64. In the assay with dermal analgesia (setting [10]), the “dermal analgesia (pin-pricking), compared among the tested formulations” value is recorded as “less effective”. For the same compound, the “dermal analgesia, effectiveness versus placebo emulsion” value in the assay on dermal analgesia is listed as “insignificantly more effective than the placebo emulsion”. Also, in assay [1], the “sweat response, induced by intracutaneous administration of adrenaline” value is on record as “partly blocked”. Further, the “number of black-coloured sweat pores (OPT-test)” value is 46 and 18 (2×) and 34 and 24 and 26 (2×) and 25 and 21 and 40 in assay [1] (setting [8]); 14 and 20 in assay [1] (setting [5]); 24 (2×) and 30 and 17 and 52 and 18 and 22 and 15 and 28 in assay [1] (setting [9]); 24 and 16 in assay [1] (setting [7]). Moreover, the “number of black-coloured sweat pores (OPT-test), M1-10” value in assay [1] (Non-Occlusion) is 27.8; in assay [1] (Occlusion), 25.6. The “number of black-coloured sweat pores (OPT-test), M1-12” value worked out at 26.0 in assay [1] (Non-Occlusion) and 24.54 in assay [1] (Occlusion). Besides, in assay [1] (setting [10]), the “sweat response inhibition, compared among the tested formulations” value is given as “less effective”. The “sweat response, effectiveness versus placebo” value in assay [1] (under non-occlusive bandage) is “more effective than placebo”; in assay [1] (under occlusive bandage) it was “significantly more effective than placebo”. Moreover, the “pain at the intradermal injection of adrenaline solution” value in assay [2] was “reported pain”.
On to `CCN(CC)CCOC(=O)c1ccc(N)cc1` [procaine], for which the antihydrotic effect result is listed as “possesses an antihydrotic effect” in assay [3] (administered electrophoretically) and “will not give any antihydrotic effect” in assay [3] (without electrophoresis, only topically).
